Source: US5480892A, “(N-phthalimidoalkyl)piperidines” (The Du Pont Merck Pharmaceutical Company, priority 1994, dated 1996)
Like-named read-outs stand apart in the source and are kept apart here.

Experiments:
Dopamine (D-2) receptor = molecular target: T1, Dopamine (D-2) receptor (Cavia porcellus, UniProt H0VE83); assay: Dopamine Receptor Binding; assay type: guinea pig, striatum membranes
T1 construct: Membranes were prepared from guinea pig striatum; from tissue; host or cells: guinea pig striatum membranes
Description: Membranes were prepared from guinea pig striatum by the method described for sigma receptor binding. The membranes were then resuspended in 50 mM Tris HCl (9 mL per brain).
Nonspecific binding was measured in the presence of 100 nM (+)-butaclamol After 15 min of incubation at 37° C. samples were filtered rapidly through Whatman GF/C glass filters under negative pressure, and washed three times with ice-cold binding buffer (5 mL).

Sigma receptor = molecular target: T2, Sigma receptor (Cavia porcellus, UniProt Q60492); assay: Sigma Receptor Binding Assay; assay type: guinea pig (male Hartley), brain membranes; conditions: 1 nM (+)-[3H]SKF 10,047, guinea pig brain membranes, pH 7.4, 45 min room temperature; read-out: Receptor Binding Affinity Sigma (Ki class)
T2 construct: Brain membranes were prepared by the method of Tam; from tissue; host or cells: guinea pig whole brain membranes
Description: Male Hartley guinea pigs (250-300 g, Charles River) were sacrificed by decapitation. […] Whole brains were homogenized (20 sec.) in 10 vol (wt/vol) of ice-cold 0.34 M sucrose with a Brinkmann Polytron (setting 8). The homogenate was centrifuged at 920×g for 10 min. The supernatant was centrifuged at 47,000×g for 20 min. The resulting membrane pellet was resuspended in 10 vol (original wt/vol) of 50 mM Tris HCl (pH 7.4) and incubated at 37° C. for 45 min to degrade and dissociate bound endogenous ligands. The membranes were then centrifuged at 47,000×g for 20 min and resuspended in 50 mM Tris HCl (50 mL per brain).
After 45 rain of incubation at room temperature, samples were filtered rapidly through Whatman GF/C glass filters under negative pressure, and washed 3 times with ice-cold Tris buffer (5 mL).
IC50 s were calculated from log-logit plots. Apparent Ki s were calculated from the equation, Ki =IC50 /[1+(L/Kd)], where L is the concentration of radioligand and Kd is its dissociation constant.

[1] = 0.15 nM [3H]spiperone, guinea pig striatum, pH 7.7, 15 min 37° C., read-out: Receptor Binding Affinity Dopamine (D-2) (Ki class)

T2 sequence (Q60492 whole entry): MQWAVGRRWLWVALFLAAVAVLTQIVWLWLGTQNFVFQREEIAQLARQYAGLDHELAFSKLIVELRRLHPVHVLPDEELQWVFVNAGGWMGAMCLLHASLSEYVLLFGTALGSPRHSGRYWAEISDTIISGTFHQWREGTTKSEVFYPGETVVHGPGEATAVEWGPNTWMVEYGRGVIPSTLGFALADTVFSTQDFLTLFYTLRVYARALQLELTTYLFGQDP
T1 sequence (H0VE83 1-446): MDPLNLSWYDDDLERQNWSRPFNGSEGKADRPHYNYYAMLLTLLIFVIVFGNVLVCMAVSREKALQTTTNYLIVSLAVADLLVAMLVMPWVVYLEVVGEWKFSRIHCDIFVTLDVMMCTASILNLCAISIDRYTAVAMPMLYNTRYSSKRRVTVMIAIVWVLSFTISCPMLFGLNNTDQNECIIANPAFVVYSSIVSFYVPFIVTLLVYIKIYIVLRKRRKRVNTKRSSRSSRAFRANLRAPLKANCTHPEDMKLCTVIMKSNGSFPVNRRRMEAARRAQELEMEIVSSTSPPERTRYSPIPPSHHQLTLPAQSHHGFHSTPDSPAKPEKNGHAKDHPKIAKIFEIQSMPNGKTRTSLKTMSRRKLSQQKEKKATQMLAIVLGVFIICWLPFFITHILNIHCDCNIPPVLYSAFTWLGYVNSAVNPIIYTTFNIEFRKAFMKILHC

Compound: O=C1[C@H]2CCCC[C@H]2C(=O)N1CC1CCN(CCc2ccc(C(F)(F)F)cc2)CC1 [Example 31]
- Ki (Dopamine (D-2) receptor; [1]): > 500 nM
- Ki (Sigma receptor): 101 to 500 nM

Compound: O=C1[C@H]2CCCC[C@H]2C(=O)N1CC1CCN(CCc2c[nH]c3ccccc23)CC1 [Example 32]
- Ki (Dopamine (D-2) receptor): > 500 nM
- Ki (Sigma receptor): 101 to 500 nM

Compound: O=C1[C@H]2CCCC[C@H]2C(=O)N1CCCC1CCN(CCc2ccccc2)CC1 [Example 33]
- Ki (Dopamine (D-2) receptor; [1]): > 500 nM
- Ki (Sigma receptor): 1 to 30 nM

Compound: O=C1c2ccccc2C(=O)N1CC1CCN(Cc2cccc(F)c2)CC1 [Example 35]
- Ki (Dopamine (D-2) receptor; [1]): > 500 nM
- Ki (Sigma receptor): 31 to 100 nM

Compound: O=C1c2ccccc2C(=O)N1CC1CCN(Cc2ccc(F)cc2)CC1 [Example 36]
- Ki (Dopamine (D-2) receptor; [1]): > 500 nM
- Ki (Sigma receptor): 1 to 30 nM

Compound: O=C1c2ccccc2C(=O)N1CC1CCN(CC2CC2)CC1 [Example 37]
- Ki (Dopamine (D-2) receptor; [1]): > 500 nM
- Ki (Sigma receptor): 101 to 500 nM

Compound: O=C1c2ccccc2C(=O)N1CCC1CCN(Cc2ccccc2)CC1 [Example 38]
- Ki (Dopamine (D-2) receptor; [1]): > 500 nM
- Ki (Sigma receptor): 1 to 30 nM

Compound: O=C1c2ccccc2C(=O)N1CCC1CCN(Cc2cccc(F)c2)CC1 [Example 40]
- Ki (Dopamine (D-2) receptor; [1]): > 500 nM
- Ki (Sigma receptor): 1 to 30 nM

Compound: O=C1c2ccccc2C(=O)N1CCC1CCN(Cc2ccc(F)cc2)CC1 [Example 41]
- Ki (Dopamine (D-2) receptor; [1]): > 500 nM
- Ki (Sigma receptor): 1 to 30 nM

Compound: O=C1c2ccccc2C(=O)N1CCC1CCN(CC2CC2)CC1 [Example 42]
- Ki (Dopamine (D-2) receptor; [1]): > 500 nM
- Ki (Sigma receptor): 1 to 30 nM

Compound: O=C1c2ccccc2C(=O)N1CCCC1CCN(Cc2ccccc2)CC1 [Example 43]
- Ki (Dopamine (D-2) receptor; [1]): > 500 nM
- Ki (Sigma receptor): 1 to 30 nM

Compound: O=C1c2ccccc2C(=O)N1CCCC1CCN(CCc2ccccc2)CC1 [Example 44]
- Ki (Dopamine (D-2) receptor; [1]): > 500 nM
- Ki (Sigma receptor): 1 to 30 nM

Compound: O=C1c2ccccc2C(=O)N1CC1CCCN(Cc2ccccc2)C1 (stereo not drawn) [Example 47]
- Ki (Dopamine (D-2) receptor; [1]): > 500 nM
- Ki (Sigma receptor): 1 to 30 nM

Compound: O=C1c2ccccc2C(=O)N1CC1CCCN(CCc2ccccc2)C1 (stereo not drawn) [Example 48]
- Ki (Dopamine (D-2) receptor; [1]): > 500 nM
- Ki (Sigma receptor): 1 to 30 nM

Compound: O=C1c2ccccc2C(=O)N1CCCC1CCCN(CCc2ccccc2)C1 (stereo not drawn) [Example 49]
- Ki (Dopamine (D-2) receptor; [1]): > 500 nM
- Ki (Sigma receptor): 1 to 30 nM

Compound: O=C1c2ccccc2C(=O)N1CCC1CCCCN1Cc1ccccc1 (stereo not drawn) [Example 50]
- Ki (Dopamine (D-2) receptor; [1]): > 500 nM
- Ki (Sigma receptor): 31 to 100 nM

Compound: O=C1C2CC=CCC2C(=O)N1CC1CCN(CCc2ccccc2)CC1 (stereo not drawn) [Example 52]
- Ki (Dopamine (D-2) receptor; [1]): > 500 nM
- Ki (Sigma receptor): 1 to 30 nM

Compound: O=C1C2C3CCC(C3)C2CN1CC1CCN(CCc2ccccc2)CC1 (stereo not drawn) [Example 54]
- Ki (Dopamine (D-2) receptor; [1]): > 500 nM
- Ki (Sigma receptor): 31 to 100 nM

Compound: O=C1C2C3C=CC(C3)C2C(=O)N1CC1CCN(CCc2ccccc2)CC1 (stereo not drawn) [Example 55]
- Ki (Dopamine (D-2) receptor; [1]): > 500 nM
- Ki (Sigma receptor): 31 to 100 nM

Compound: O=C1C2=C(CCCC2)C(=O)N1CC1CCN(CCc2ccccc2)CC1 [Example 56]
- Ki (Dopamine (D-2) receptor; [1]): > 500 nM
- Ki (Sigma receptor): 1 to 30 nM

Compound: O=C1C2C3CC(c4ccccc43)C2C(=O)N1CC1CCN(CCc2ccccc2)CC1 (stereo not drawn) [Example 57]
- Ki (Dopamine (D-2) receptor; [1]): > 500 nM
- Ki (Sigma receptor): 1 to 30 nM

Compound: O=C1C2C3CCC(O3)C2C(=O)N1CC1CCN(CCc2ccccc2)CC1 (stereo not drawn) [Example 58]
- Ki (Dopamine (D-2) receptor; [1]): > 500 nM
- Ki (Sigma receptor): 1 to 30 nM

Compound: O=C1C2C3C=CC(C4CCC34)C2C(=O)N1CC1CCN(CCc2ccccc2)CC1 (stereo not drawn) [Example 59]
- Ki (Dopamine (D-2) receptor; [1]): > 500 nM
- Ki (Sigma receptor): 31 to 100 nM

Compound: O=C1C2C3CCCC(CC3)C2C(=O)N1CC1CCN(CCc2ccccc2)CC1 (stereo not drawn) [Example 61]
- Ki (Dopamine (D-2) receptor; [1]): > 500 nM
- Ki (Sigma receptor): 1 to 30 nM

Compound: O=C1C2C3C=CC(CCC3)C2C(=O)N1CC1CCN(CCc2ccccc2)CC1 (stereo not drawn) [Example 62]
- Ki (Dopamine (D-2) receptor; [1]): > 500 nM
- Ki (Sigma receptor): 1 to 30 nM

Compound: O=C1C2CC(O)C(O)CC2C(=O)N1CC1CCN(CCc2ccccc2)CC1 (stereo not drawn) [Example 63]
- Ki (Dopamine (D-2) receptor; [1]): > 500 nM
- Ki (Sigma receptor): > 500 nM

Compound: CC12CCCCC1C(=O)N(CC1CCN(CCc3ccccc3)CC1)C2=O (stereo not drawn) [Example 64]
- Ki (Dopamine (D-2) receptor; [1]): > 500 nM
- Ki (Sigma receptor): 31 to 100 nM

Compound: CC12CCCCC1(C)C(=O)N(CC1CCN(CCc3ccccc3)CC1)C2=O (stereo not drawn) [Example 65]
- Ki (Dopamine (D-2) receptor; [1]): 101 to 500 nM
- Ki (Sigma receptor): 31 to 100 nM

Compound: CC12CC=CCC1(C)C(=O)N(CC1CCN(CCc3ccccc3)CC1)C2=O (stereo not drawn) [Example 66]
- Ki (Dopamine (D-2) receptor; [1]): > 500 nM
- Ki (Sigma receptor): 31 to 100 nM

Compound: CC12CC=CCC1C(=O)N(CC1CCN(CCc3ccccc3)CC1)C2=O (stereo not drawn) [Example 67]
- Ki (Dopamine (D-2) receptor; [1]): > 500 nM
- Ki (Sigma receptor): 101 to 500 nM
